Data as given in ChEMBL document CHEMBL1201862, “PubChem BioAssay data set” (2004).
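A five-concentration, 48-hour dose response in 96-well plates underlies each endpoint, interpolated linearly between surrounding concentrations. GI50 = concentration required for 50% inhibition of growth.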 Activity calls are given as the source filed them. Cut-off read from the data, not from the text of the source: active = GI50 up to about 1.1 µM and inactive = higher.

Experiments:
Experiment in all cases: DTP human tumour cell line panel, 48 h
A549 = test system: A549
ACHN = test system: ACHN
SN12C = test system: SN12C
SK-MEL-28 = test system: SK-MEL-28
UACC-257 = test system: UACC-257
HCC 2998 = test system: HCC 2998
UO-31 = test system: UO-31
MDA-N = test system: MDA-N
M14 = test system: M14
MCF7 = test system: MCF7
MOLT-4 = test system: MOLT-4
OVCAR-5 = test system: OVCAR-5
SK-OV-3 = test system: SK-OV-3
OVCAR-3 = test system: OVCAR-3
Malme-3M = test system: Malme-3M
HOP-92 = test system: HOP-92
LOX IMVI = test system: LOX IMVI
UACC-62 = test system: UACC-62
SK-MEL-5 = test system: SK-MEL-5
U-251 = test system: U-251

SMILES	GI50 (A549)	GI50 (ACHN)	GI50 (SN12C)	GI50 (SK-MEL-28)	GI50 (UACC-257)	GI50 (HCC 2998)	GI50 (UO-31)	GI50 (MDA-N)	GI50 (M14)	GI50 (MCF7)	GI50 (MOLT-4)	GI50 (OVCAR-5)	GI50 (SK-OV-3)	GI50 (OVCAR-3)	GI50 (Malme-3M)	GI50 (HOP-92)	GI50 (LOX IMVI)	GI50 (UACC-62)	GI50 (SK-MEL-5)	GI50 (U-251)
Cc1ccc(F)cc1NC(=O)O/N=C(\Cl)C(C)C	18900 nM (inactive)	2140 nM (inactive)	6110 nM (inactive)	15800 nM (inactive)	19000 nM (inactive)	16200 nM (inactive)	7980 nM (inactive)	5620 nM (inactive)	5220 nM (inactive)	6400 nM (inactive)	1600 nM (inactive)	15400 nM (inactive)	20200 nM (inactive)	6470 nM (inactive)	2700 nM (inactive)	2580 nM (inactive)	1980 nM (inactive)	13200 nM (inactive)	6970 nM (inactive)	23300 nM (inactive)
COc1cc2c(cc1OC)C(=O)/C(=C/c1cc(C)c(O)c(C)c1)C2	< 16.5 nM (active)	60.3 nM (active)	24.4 nM (active)	> 75700 nM (inactive)	755 nM (active)	< 40.7 nM (active)	> 100000 nM (inactive)	< 10 nM (active)	< 10 nM (active)	< 14.8 nM (active)	< 10 nM (active)	1630 nM (inactive)	< 10 nM (active)	11.5 nM (active)	< 10 nM (active)	> 100000 nM (inactive)	< 25.9 nM (active)	< 16.8 nM (active)	< 10 nM (active)	< 10 nM (active)
